{
  "source": "PubChem BioAssay AID1259410",
  "about": "(Chemical Carcinogenesis Research Information System (CCRIS), 2018)",
  "origin": "cited, not measured here",
  "system": "rodent tumor promotion studies, tumor incidence",
  "test": "CCRIS tumor promotion studies",
  "data": [
    {"smiles": "CCOc1ccc2c(c1)C(C)=CC(C)(C)N2", "values": [
      {"measurement": "outcome", "setting": "Carcinogen: 1,2-DIMETHYLHYDRAZINE, 540-73-8, Doses [Carcinogen]: 20 MG/KG 1/WK FOR 4 WK, Doses [Promoter]: 0, 0.8% IN DIET FOR 36 WK (STUDY DURATION: 40 WK), Route [Carcinogen]: SUBCUTANEOUS, Route [Promoter]: ORAL, Species: RAT, Strain/Sex: F344/MALE", "value": "colon: tumor"},
      {"measurement": "outcome", "setting": "Carcinogen: N-BUTYL-N-(4-HYDROXYBUTYL)NITROSAMINE, 3817-11-6, Doses [Carcinogen]: 0.05% IN DRINKING WATER FOR 4 WK, Doses [Promoter]: 0, 0.8% IN DIET FOR 32 WK (STUDY DURATION: 36 WK), Route [Carcinogen]: ORAL, Route [Promoter]: ORAL, Species: RAT, Strain/Sex: F344/MALE", "value": "urinary bladder: papilloma, carcinoma"},
      {"measurement": "outcome", "setting": "Carcinogen: N-BUTYL-N-(4-HYDROXYBUTYL)NITROSAMINE, 3817-11-6, Doses [Carcinogen]: 0.05% IN DRINKING WATER FOR 4 WK, Doses [Promoter]: 0, 0.8% IN DIET FOR 32 WK BEGINNING POST CARCINOGEN (STUDY DURATION: 36 WK), Route [Carcinogen]: ORAL, Route [Promoter]: ORAL, Species: RAT, Strain/Sex: F344/MALE", "value": "bladder: papilloma"},
      {"measurement": "outcome", "setting": "Carcinogen: N-ETHYL-N-(HYDROXYETHYL)NITROSAMINE, 13147-25-6, Doses [Carcinogen]: 0.1% IN DRINKING WATER FOR 2 WK, Doses [Promoter]: 0, 0.8% IN DIET FOR 29 WK (STUDY DURATION: 31 WK), Route [Carcinogen]: ORAL, Route [Promoter]: ORAL, Species: RAT, Strain/Sex: F344/MALE", "value": "kidney: adenoma"}
    ]},
    {"smiles": "[Cl][Zn][Cl]", "values": [
      {"measurement": "outcome", "setting": "Carcinogen: URETHANE, 51-79-6, Doses [Carcinogen]: 1.5 MG/G ONCE, Doses [Promoter]: 0, 50, 200, 500 UG/ML IN DEIONIZED DRINKING WATER BEGINNING 3 WK PRIOR TO CARCINOGEN DOSE AND CONTINUING FOR 12 WK POST, Doses [Promoter]: 0, 50, 200, 500 UG/ML IN DEIONIZED DRINKING WATER BEGINNING 3 WK PRIOR TO CARCINOGEN DOSE AND CONTINUING FOR 12 WK POST, Route [Carcinogen]: INTRAPERITONEAL, Route [Promoter]: ORAL, Species: MOUSE, Strain/Sex: SWISS/FEMALE", "value": "lung: adenoma"}
    ]},
    {"smiles": "Cc1cccc(C)c1NC1=NCCCS1", "values": [
      {"measurement": "outcome", "setting": "Carcinogen: N-BIS(2-HYDROXYPROPYL)NITROSAMINE, 53609-64-6, Doses [Carcinogen]: 2,400 MG/KG ONCE, Doses [Promoter]: 0, 1,000 PPM IN DIET FOR 52 WK BEGINNING 1 WK POST CARCINOGEN DOSE (STUDY DURATION: 28 WK), Route [Carcinogen]: SUBCUTANEOUS, Route [Promoter]: ORAL, Species: RAT, Strain/Sex: F344/MALE", "value": "thyroid gland: follicular cell adenoma or carcinoma"},
      {"measurement": "outcome", "setting": "Carcinogen: N-NITROSOBIS(2-HYDROXYPROPYL)AMINE [53609-64-6], Doses [Carcinogen]: 2400 MG/KG IN SALINE ONCE, Doses [Promoter]: 0, 250, 500, 1000 PPM IN DIET FOR 26 WK, BEGINNING 1 WK AFTER CARCINOGEN DOSE (STUDY DURATION: 27 WK), Doses [Promoter]: 0, 250, 500, 1000 PPM IN DIET FOR 26 WK, BEGINNING 1 WK AFTER CARCINOGEN DOSE (STUDY DURATION: 27 WK), Route [Carcinogen]: SUBCUTANEOUS, Route [Promoter]: ORAL, Species: RAT, Strain/Sex: F344/MALE", "value": "thyroid gland: follicular cell hyperplasia, follicular cell adenoma"},
      {"measurement": "outcome", "setting": "Carcinogen: N-NITROSOBIS(2-HYDROXYPROPYL)AMINE, 53609-64-6, Doses [Carcinogen]: 2400 MG/KG IN SALINE ONCE, Doses [Promoter]: 0, 1,000 PPM IN FEED FOR 52 WK BEGINNING 1 WK POST CARCINOGEN TREATMENT (STUDY DURATION: 53 WK), Route [Carcinogen]: SUBCUTANEOUS, Route [Promoter]: ORAL, Species: RAT, Strain/Sex: F344/MALE", "value": "thyroid: adenoma and carcinoma"}
    ]},
    {"smiles": "O=C1[C@H]2CC=CC[C@H]2C(=O)N1SC(Cl)(Cl)Cl", "values": [
      {"measurement": "outcome", "setting": "Carcinogen: DIETHYLNITROSAMINE, 55-18-5, N-METHYL-N-NITROSOUREA, 684-93-5, N-BIS(2-HYDROXYPROPYL)NITROSAMINE, 53609-64-6, Carcinogen: DIETHYLNITROSAMINE, 55-18-5, N-METHYL-N-NITROSOUREA, 684-93-5, N-BIS(2-HYDROXYPROPYL)NITROSAMINE, 53609-64-6, Doses [Carcinogen]: 100 MG/KG DEN ONCE THEN 20 MG/KG MNU 2/WK FOR 2 WK FOLLOWED BY 0.1% DHPN IN DRINKING WATER FOR 2 WK, Doses [Promoter]: 0, 4000 PPM IN DIET BEGINNING POST CARCINOGEN TREATMENT AND CONTINUING FOR 16 WK (STUDY DURATION: 20 WK), Route [Carcinogen]: INTRAPERITONEAL, INTRAPERITONEAL, ORAL, Route [Carcinogen]: INTRAPERITONEAL, INTRAPERITONEAL, ORAL, Route [Promoter]: ORAL, Species: RAT, Strain/Sex: F344/MALE", "value": "kidney: adenoma"}
    ]},
    {"smiles": "CC(=O)Nc1ccc2c(c1)Cc1ccccc1-2", "values": [
      {"measurement": "outcome", "setting": "Carcinogen: DIETHYLNITROSAMINE, 55-18-5, Doses [Carcinogen]: 50 MG/KG ONCE 24 HR AFTER 2/3 PARTIAL HEPATECTOMY, Doses [Promoter]: 0, 0.02% IN DIET FOR 1 MO BEGINNING 1 WK POST CARCINOGEN DOSE (STUDY DURATION: 8 MO), Route [Carcinogen]: INTRAPERITONEAL, Route [Promoter]: ORAL, Species: RAT, Strain/Sex: WISTAR/MALE", "value": "liver: carcinoma"},
      {"measurement": "outcome", "setting": "Carcinogen: DIETHYLNITROSAMINE, 55-18-5, Doses [Carcinogen]: 200 MG/KG BW IN 0.9% SALINE ONCE, Doses [Promoter]: 0, 0.05 MMOL/KG BW IN POLYETHYLENE GLYCOL FOR 5 D BEGINNING 1 WK POST CARCINOGEN DOSE, 70% PARTIAL HEPATECTOMY PERFORMED, Route [Carcinogen]: INTRAPERITONEAL, Route [Promoter]: GAVAGE, Species: RAT, Strain/Sex: SPRAGUE-DAWLEY/MALE", "value": "liver: hepatocellular carcinoma"}
    ]},
    {"smiles": "Cc1c(C)c2c(c(C)c1O)CCC(C)(CCCC(C)CCCC(C)CCCC(C)C)O2", "note": "(stereo not drawn)", "values": [
      {"measurement": "outcome", "setting": "Carcinogen: 7,12-DIMETHYLBENZ[A]ANTHRACENE, 57-97-6, Doses [Carcinogen]: 10 NMOL IN 0.2 ML ACETONE ONCE, Doses [Promoter]: 0, 80 UMOL IN 0.2 ML ACETONE 2/WK BEGINNING 1 WK POST CARCINOGEN DOSE AND CONTINUING FOR 19 WK (STUDY DURATION: 20 WK), Route [Carcinogen]: DERMAL, Route [Promoter]: DERMAL, Species: MOUSE, Strain/Sex: SENCAR/FEMALE", "value": "skin: papilloma"}
    ]},
    {"smiles": "Cc1c(N(C)CS(=O)(=O)O)c(=O)n(-c2ccccc2)n1C", "values": [
      {"measurement": "outcome", "setting": "Carcinogen: DIETHYLNITROSAMINE, 55-18-5, Doses [Carcinogen]: 0.O1% IN DRINKING WATER FOR 2 WK, Doses [Promoter]: 0.4% IN DRINKING WATER 5 D/ WK FOR 72 WK BEGINNING 1 WK POST CARCINOGEN (STUDY DURATION: 83 WK), Route [Carcinogen]: ORAL, Route [Promoter]: ORAL, Species: RAT, Strain/Sex: F344/MALE", "value": "liver neoplastic nodule, hepatocellular carcinoma ; kidney: adenoma"}
    ]},
    {"smiles": "C=C(C)[C@H]1CC=C(C)CC1", "values": [
      {"measurement": "outcome", "setting": "Carcinogen: 7,12-DIMETHYLBENZ(A)ANTHRACENE, Doses [Carcinogen]: TOP, Route [Carcinogen]: DERMAL, Route [Promoter]: DERMAL, Species: MOUSE, Strain/Sex: MALE,FEMALE", "value": "integumentary system (skin)"},
      {"measurement": "outcome", "setting": "Carcinogen: N-ETHYL-N-HYDROXYETHYLNITROSAMINE, 13147-25-6, Doses [Carcinogen]: 500 PPM IN DRINKING WATER FOR 2 WK, Doses [Promoter]: 0, 150 MG/KG/D IN CORN OIL 5 D/WK FOR 30 WK BEGINNING POST CARCINOGEN TREATMENT (STUDY DURATION: 32 WK), Route [Carcinogen]: ORAL, Route [Promoter]: GAVAGE, Species: RAT, Strain/Sex: F344/MALE", "value": "kidney: adenoma"},
      {"measurement": "outcome", "setting": "Carcinogen: URETHANE, Doses [Carcinogen]: TOP, Route [Carcinogen]: DERMAL, Route [Promoter]: DERMAL, Species: MOUSE, Strain/Sex: MALE,FEMALE", "value": "integumentary system (skin)"}
    ]},
    {"smiles": "CCCCN(CCCCO)N=O", "values": [
      {"measurement": "outcome", "setting": "Carcinogen: DIETHYLNITROSAMINE, 55-18-5, N-METHYLNITROSOUREA, 684-93-5, DIHYDROXY-DI-N- PROPYLNITRASAMINE, 53609-64-6, Carcinogen: DIETHYLNITROSAMINE, 55-18-5, N-METHYLNITROSOUREA, 684-93-5, DIHYDROXY-DI-N- PROPYLNITRASAMINE, 53609-64-6, Doses [Carcinogen]: 100 MG/KG/BW DEN ONCE AT BEGINNING OF STUDY THEN 20 MG/KG/BW MNU ONCE ON D 2, 5, 8 AND 11 OF STUDY FOLLOWED BY 0.1% DHPN, Doses [Promoter]: 0, 0.1% IN DRINKING WATER BEGINNING POST CARCINOGEN TREATMENT AND CONTINUING FOR DURATION OF STUDY (STUDY DURATION: 20 W, Route [Carcinogen]: INTRAPERITONEAL, INTRAPERITONEAL, ORAL, Route [Carcinogen]: INTRAPERITONEAL, INTRAPERITONEAL, ORAL, Route [Promoter]: ORAL, Species: RAT, Strain/Sex: F344/MALE", "value": "urinary bladder: transitional cell papilloma"},
      {"measurement": "outcome", "setting": "Carcinogen: N-BIS(2-HYDROXYPROPYL)NITROSAMINE, 53609-64-6, N-ETHYL-N-HYDROXYETHYLNITROSAMINE, 13147-25-6, 3,2'-DIMETHYL-4-AMINOB, Carcinogen: N-BIS(2-HYDROXYPROPYL)NITROSAMINE, 53609-64-6, N-ETHYL-N-HYDROXYETHYLNITROSAMINE, 13147-25-6, 3,2'-DIMETHYL-4-AMINOB, Doses [Carcinogen]: 1000 MG/KG IP IN SALINE ON DAY 1 AND 4, 1500 MG/KG IG IN DISTILLED WATER ON DAY 8 AND 11, 75 MG/KG SC IN CORN OIL ON D, Doses [Carcinogen]: 1000 MG/KG IP IN SALINE ON DAY 1 AND 4, 1500 MG/KG IG IN DISTILLED WATER ON DAY 8 AND 11, 75 MG/KG SC IN CORN OIL ON D, Doses [Promoter]: 0, 0.1% IN DRINKING WATER BEGINNING 1 WK POST LAST CARCINOGEN DOSE AND CONTINUING FOR 12 WK (STUDY DURATION: 16 WK), Route [Carcinogen]: INTRAPERITONEAL, GAVAGE, SUBCUTANEOUS, Route [Carcinogen]: INTRAPERITONEAL, GAVAGE, SUBCUTANEOUS, Route [Promoter]: ORAL, Species: RAT, Strain/Sex: F344/MALE", "value": "urinary bladder: tumor"}
    ]}
  ]
}
